Patent publication US20090105197A1 (priority 2001, published 2009)
“And” between values parts separate entries of the source, which are not always exact repeats. Identical values can stand only once.

Tests used:
[1] = tested on: acetic acid-induced writhing in mice; assay: animal or person; format: in vivo, Kunming mice; details: for ID95 (95% inhibition dose) of aspirin: i.m.
[2] = tested on: heat-induced tail flick in mice; details: mouse, in vivo
[3] = Mus musculus, im, read-out: inhibition Rate (%)
[4] = combined with small doses of TTX (1/25 and 1/50 LD50) versus aspirin alone

SMILES	Average Writhing movements ([1]; ASP alone 25 mg/kg i.m.)	Average Writhing movements ([1]; ASP alone 50 mg/kg i.m.)	Average Writhing movements ([1]; ASP alone 100 mg/kg i.m.)	Average Writhing movements ([1]; ASP alone 150 mg/kg i.m.)	Average Writhing movements ([1]; ASP alone 200 mg/kg i.m.)	inhibition at 25 mg/kg [1, 3]	inhibition at 50 mg/kg [1, 3]	inhibition at 100 mg/kg [1, 3]	inhibition at 150 mg/kg [1, 3]	inhibition at 200 mg/kg [1, 3]	ID95 (95% inhibition dose) of aspirin ([1]; aspirin alone)	ID95 (95% inhibition dose) of aspirin ([1]; aspirin alone, listed as aspirin)	ID95 (95% inhibition dose) of aspirin ([1]; aspirin combined with TTX 0.39 μg/kg (1/50 LD50))	ID95 (95% inhibition dose) of aspirin ([1]; aspirin combined with TTX 0.79 μg/kg (1/25 LD50))	reduction of ID50 of aspirin [1, 4]	reduction of ID95 of aspirin [1, 4]	Average Writhing movements ([1]; mouse, in vivo, 3 mg/kg)	Average Writhing movements ([1]; mouse, in vivo, ip, 3 mg/kg)	analgesic effect with escalating doses [2]
CC(=O)Oc1ccccc1C(=O)O [ASP, Aspirin]	25.1 ± 14.5	19.3 ± 13.8	12.0 ± 9.2	5.2 ± 5.7	2.7 ± 1.9	35.6%	50.6%	69.3%	86.6%	93.2%	361.8 mg/kg	361.8 mg/kg and 361.77 mg/kg	154.3 mg/kg and 154.33 mg/kg	94.5 mg/kg and 94.47 mg/kg	exceeded two folds	exceeded two folds	–	–	–
NC1=N[C@H](O)[C@H]2[C@H]3O[C@]4(O)O[C@@H]([C@@H](O)[C@@]2(N1)[C@@H]4O)[C@]3(O)CO [TTX, Tetrodotoxin]	–	–	–	–	–	–	–	–	–	–	–	–	–	–	–	–	28.2 ± 9.65	23.2 ± 11.7	did not increase markedly with escalating doses
